Source: patent US20120270954A1, “METHODS FOR MAINTAINING EYE HEALTH AND AMELIORATING OPTHALMIC MALADIES IN CANINES” (priority 2009, published 2012)
Like-named read-outs stand apart in the source and are kept apart here.

Experiments:
[1] = type: in vivo; conditions: for Antioxidant level in Cortical/Epithelial Layer (C) of dog lens / Antioxidant level in Nuclear Layer (N) of dog lens: lenses of seven dogs
Procedure: Eye samples were collected from seven (7) dogs. Eye balls were removed within 1 hour of death at necropsy, stored in individual containers at 4° C., and stored on wet ice for dissection within one day. The eyes were dissected to take out lenses. The lenses were separated into two layers: (1) an outer, soft cortical/epithelial layer and (2) an inner, hard nuclear layer. The layers were analyzed for carotenoids, vitamin C, and vitamin E following standard procedures given in Craft N E, Haitema T B, Garnett K M, Fitch K A, Dorey C K. Carotenoid, tocopherol, and retinol concentrations in elderly human brain. J Nutr. Health Aging 2004; 8:156-62.

[2] = previous studies, humans regularly consume β-carotene in their diets; cited from earlier work

| Compound | Antioxidant level in Cortical/Epithelial Layer (C) of dog lens [1] [µg/g] | Antioxidant level in Nuclear Layer (N) of dog lens ([1]; nuclear layer) [µg/g] | β-Carotene concentration in lens layer ([1]; Dog 1, BEA, M/n, age 15.50, layer N) [ng/g] | β-Carotene concentration in lens layer ([1]; Dog 2, BEA, M/n, age 13.55, layer C) [ng/g] | β-Carotene concentration in lens layer ([1]; Dog 2, BEA, M/n, age 13.55, layer N) [ng/g] | β-Carotene concentration in lens layer ([1]; Dog 3, LAB, F/s, age 13.41, layer C) [ng/g] | β-Carotene concentration in lens layer ([1]; Dog 3, LAB, F/s, age 13.41, layer N) [ng/g] | β-Carotene concentration in lens layer ([1]; Dog 4, LAB, M/n, age 14.22, layer C) [ng/g] | β-Carotene concentration in lens layer ([1]; Dog 4, LAB, M/n, age 14.22, layer N) [ng/g] | β-Carotene concentration in lens layer ([1]; Dog 5, Man T, F/s, age 12.79, layer C) [ng/g] | β-Carotene concentration in lens layer ([1]; Dog 5, Man T, F/s, age 12.79, layer N) [ng/g] | β-Carotene concentration in lens layer ([1]; Dog 6, SIB HUSKY, M/n, age 6.10, layer C) [ng/g] | β-Carotene concentration in lens layer ([1]; Dog 6, SIB HUSKY, M/n, age 6.10, layer N) [ng/g] | β-Carotene concentration in lens layer ([1]; Dog 7, LAB, F/s, age 9.31, layer C) [ng/g] | β-Carotene concentration in lens layer ([1]; Dog 7, LAB, F/s, age 9.31, layer N) [ng/g] | cortical layer samples that accumulated β-carotene ([1]; dog lens, cortical layer, seven dogs) | nuclear layer samples that accumulated β-carotene ([1]; dog lens, nuclear layer, seven dogs) | detection or accumulation in human lenses [2] |
| --- | --- | --- | --- | --- | --- | --- | --- | --- | --- | --- | --- | --- | --- | --- | --- | --- | --- | --- |
| vitamin E | 0.93 | 0.64 | – | – | – | – | – | – | – | – | – | – | – | – | – | – | – | – |
| CC1=C(/C=C/C(C)=C/C=C/C(C)=C/C=C/C=C(C)/C=C/C=C(C)/C=C/C2=C(C)CCCC2(C)C)C(C)(C)CCC1 [β-Carotene, β-carotene] | 0.00174 | 0.00274 | 0.79 | 1.06 | 0.60 | 0.73 | 1.26 | 0.71 | 0.79 | 1.35 | 1.60 | 4.26 | 8.17 | 2.35 | 5.99 | six out of seven cortical layer samples accumulated | all nuclear layer samples accumulated | not detected or accumulated in human lenses |
| O=C1O[C@H]([C@@H](O)CO)C(O)=C1O [Vitamin C, vitamin C] | 112.38 | 23.59 | – | – | – | – | – | – | – | – | – | – | – | – | – | – | – | – |
